Measurements as given in patent US20100249048A1, “BETA GLYCOLIPIDS FOR THE TREATMENT OF CALCIFICATION RELATED DEGENERATIVE DISORDERS” (priority 2007, published 2010).

B1: PTH: peptide hormone, the most important regulator of calcium and phosphate metabolism (peptide, UniProt P01270 32-115, looked up)
Parathyroid hormone: SVSEIQLMHNLGKHLNSMERVEWLRKKLQDVHNFVALGAPLAPRDAGSQRPRKKEDNVLVESHEKSLGEADKADVNVLTKAKSQ
modifications: Parathyroid hormone

How the values were obtained:
valve myofibroblasts = assay: Von Kossa staining of cultured valve myofibroblasts (calcification / mineralization); assay type: cell-based, rat; conditions: for osteogenic differentiation and calcification of valve myofibroblasts (Von kossa staining): 1, 10 or 100 μg/ml, fourteen days
Method: The present inventors have now further explored the calcification process in an attempt to specifically identify targets for interfering and prevention thereof. Therefore, the inventors next examined myofibroblasts obtained from the aortic valve of wild type rats, cultured in 24 well plates.
Myofibroblasts were incubated with PTH ([…]), or phosphate, 1, 10 or 100 μg/ml) for fourteen days. As shown by the Von kossa (calcium) staining presented by FIG. 7, the phosphate treatment, but not the PTH, induces osteogenic differentiation and calcification of valve myofibroblasts.
To test the possibility that inhibition of PIT1 would decrease mineralization, valve myofibroblasts were incubated with 10 μg/ml phosphate, or with phosphate and 0.5 mM foscarnet, the specific PIT1 inhibitor for 7 days.

TNF-α = TNF-α levels in supernatants of myofibroblasts; assay type: cell-based, rat; conditions: myofibroblasts treated with foscarnet; 69 pg/ml without
Text: (§1) In order to investigate whether the beneficial effect of foscarnet on the calcification process also affects immunomodulatory parameters, the inventors the effect of foscarnet on the levels of cytokines that are known as having a role in osteoblast transformation and maturation. Therefore, levels of TNF-α and IL-6 were next measured in supernatants of myofibroblasts treated with foscarnet. […] IL-6 levels.

IL-6 = IL-6 levels in supernatants of myofibroblasts; assay type: cell-based, rat; conditions: myofibroblasts treated with foscarnet
Text: as §1

[1] = test system: high Adenine, high phosphate rat model; assay: MSCT assessment of valve calcification (Agatston score), foscarnet study; assay type: in vivo; conditions: 5 mg/kg foscarnet i.p. (group B) vs diet group A, ninth week, P=0.05
Method: MSCT scanning without contrast was performed on all rats (Brilliance, Philips Medical Systems, Groningen, Netherlands) on the ninth week. Study parameters were: 120 KVp, 300 mAs, slice thickness 0.67 mm, increment 0.3 mm. The scan was analyzed by an operator blinded to the study groups, on an off-line CT workstation. The Agatston Score was calculated by multiplying the area of a calcified lesion with a weighted CT attenuation score dependent on the maximal CT attenuation (HU) within a lesion as previously described [Agatston, A. S., et al. Journal of the American College of Cardiology 15:827-832 (1990)]. In order to asses the effect of foscarnet on treating AVC in vivo, the high Adenine, high phosphate rat model was used. Three different groups (10 rats each) were fed daily with the Adenine diet (diet group) for 6 weeks (Group A). Group B (n=9) followed the same protocol and was also treated with 5 mg/kg foscarnet administered intraperitoneally (i.p.). The control group C, received daily chew. Renal function tests, electrolytes were followed for nine weeks. Multislice computed tomography (MSCT) was performed at the ninth week. Calcium scores were calculated using the Agatston score.

| Molecule | osteogenic differentiation and calcification of valve myofibroblasts (Von kossa staining) (valve myofibroblasts) | cell mineralization (Von kossa staining) (valve myofibroblasts; 10 μg/ml phosphate plus 0.5 mM foscarnet, 7 days) | TNF-α levels in supernatants (TNF-α) [pg/mL] | IL-6 levels in supernatants (IL-6) | AVC, Agatston score (MSCT) [1] | AVC, Agatston score (MSCT) ([1]; listed as Forscarnet) |
| --- | --- | --- | --- | --- | --- | --- |
| phosphate | induces |  |  |  |  |  |
| O=C(O)P(=O)(O)O [foscarnet] |  | completely inhibited | 5 | no effect | 21 | significant decrease |
| B1 | not |  |  |  |  |  |
